The structures appear in SMILES notation. Like-named read-outs stand apart in the source and are kept apart here.

For assay [1], the system named is FADD−/− Jurkat cells. Put plainly: TNF-induced programmed cell necrosis inhibition, Cell Titer-Glo viability. The class given is cell-based. Particulars: Homo sapiens, Jurkat. From the text: (§1) The adopted biological assay protocol was: the programmed necroptosis effect of compounds on TNF-induced in FADD (Fas-Associated Death Domain) deficient Jurkat cells and L929 cells.
(§2) In order to verify the inhibitory effect of the compounds of the present invention on programmed cell necrosis at the cellular level, cell types closely related to the RIP1 pathway, namely FADD deficient Jurkat cells (human peripheral blood leukemia T cell line) and L929 cells, were selected. Two different stimulation methods were used: tumor necrosis factor (TNFα) used alone, or TNFα used in combination with mitochondria-derived cysteine aspartate activator (SMAC). Cells viability was calculated by detecting chemiluminescence values, and the biological activity of the compound for inhibiting programmed cell necrosis can be obtained.
(§3) Methods: FADD deficient Jurkat cells: FADD deficient Jurkat cells (human peripheral blood leukemia T cell line) were cultured in vitro. After growing to the logarithmic growth phase, the cells were collected, centrifuged at 1000 rpm for 5 min, the supernatant was discarded, and the cell concentration was adjusted to 2.5×10^5/mL. Cells were seeded into 384-well plates, 40 μl per well. 5 μL of Smac (50 nM) diluted in cell culture medium and 5 μL of each compound were added to the corresponding wells. After pretreatment at 37° C. for 1 h, 5 μL of TNFα (50 ng/mL) diluted in cell culture medium was added to each well of the stimulation group, and 5 μL of the culture medium was added to the control group. The plate was cultured in a cell incubator (37° C., 5% CO2) for 14 h, and 15 μl of Cell Titer-Glo solution was added to each well, then incubated for 30 min at room temperature, and intracellular ATP level was measured by detecting luminescence. The unstimulated DMSO control wells were taken as 100% cell viability. L929 cells: The L929 cells (mouse fibroblasts) were cultured in vitro, digested and diluted to 6.25×10^4/ml, and the cells were seeded into 384-well plates, 40 μl per well. The plate was placed in a cell incubator (37° C., 5% CO2) for 12 hours. 5 μL of Smac (500 nM) diluted in cell culture medium and 5 μL of each compound were added to the corresponding wells. After pretreatment at 37° C. for 1 h, 5 μL of TNFα (500 ng/mL) diluted in cell culture medium was added to each well of the stimulation group, and 5 μL of the culture medium was added to the control group. After the plate was cultured for 14 h in a cell incubator (37° C., 5% CO2), 15 μl of Cell Titer-Glo solution was added to each well. The plate was incubated at room temperature for 30 min, and intracellular ATP level was measured by detecting luminescence. The unstimulated DMSO control wells were taken as 100% cell viability. EC50 values of the compounds were calculated using Prism Graphpad statistical software.
FADD deficient Jurkat cells: FADD deficient Jurkat cells (human peripheral blood leukemia T cell line) were cultured in vitro. After growing to the logarithmic growth phase, the cells were collected, centrifuged at 1000 rpm for 5 min, the supernatant was discarded, and the cell concentration was adjusted to 2.5×10^5/mL. Cells were seeded into 384-well plates, 40 μl per well. 5 μL of Smac (50 nM) diluted in cell culture medium and 5 μL of each compound were added to the corresponding wells. After pretreatment at 37° C. for 1 h, 5 μL of TNFα (50 ng/mL) diluted in cell culture medium was added to each well of the stimulation group, and 5 μL of the culture medium was added to the control group. After the plate was cultured in a cell incubator (37° C., 5% CO2) for 14 h, 15 μl of Cell Titer-Glo solution was added to each well. The mixture was incubated for 30 min at room temperature, and intracellular ATP level was measured by detecting luminescence. The unstimulated DMSO control wells were taken as 100% cell viability.
(In general: ATP-based viability assays read luminescence as a measure of living cells.)

The test system of assay [2] is L929 cells. Described as above. The class given is cell-based, mouse. Particulars: Mus musculus, read-out: EC50 inhibitory activity on programmed cell necrosis.
Source text: as §1, §2, §3
L929 cells: The L929 cells (mouse fibroblasts) were cultured in vitro, digested and diluted to 6.25×10^4/ml, and the cells were seeded into 384-well plates, 40 μl per well. The plate was placed in a cell incubator (37° C., 5% CO2) for 12 hours. 5 μL of Smac (500 nM) diluted in cell culture medium and 5 μL of each compound were added to the corresponding wells. After pretreatment at 37° C. for 1 h, 5 μL of TNFα (500 ng/mL) diluted in cell culture medium was added to each well of the stimulation group, and 5 μL of the culture medium was added to the control group. After the plate was cultured for 14 h in a cell incubator (37° C., 5% CO2), and 15 μl of Cell Titer-Glo solution was added to each well, then incubated at room temperature for 30 min, and intracellular ATP level was measured by detecting luminescence. The unstimulated DMSO control wells were taken as 100% cell viability.

Setting [3] is: 14 h, TNFa + SM164, read-out: EC50 inhibitory activity on programmed cell necrosis.
The mark [4] stands for this setting: TNFa, read-out: EC50 inhibitory activity on programmed cell necrosis.
Setting [5] is: L929, 14 h, L929 cells (mouse), TNFa + SM164.

The term EC50 denotes the concentration that produces a half-maximal response. Turning to `Cc1ccc(C2CCCN2C(=O)C(C)(C)Oc2ccc(Cl)cc2C(F)(F)F)cc1` (centres unmarked) [QY-4-67], the half-maximal effective concentration (EC50) in assay [1] (setting [3]) was found to be 5160 nM; in assay [1] (setting [4]), 1330 nM; in assay [2] (setting [5]), 3930 nM; in assay [2] (L929, L929 cells (mouse), TNFa) it was 1380 nM.
As for `CC(C)(Oc1ccc(Cl)cc1F)C(=O)N1CCCC1c1cccc(C#N)c1` (centres unmarked) [QY-4-69], the EC50 in assay [1] (setting [3]) amounted to 9380 nM; in assay [1] (setting [4]), 1540 nM; in assay [2] (setting [5]) it was 3630 nM; in assay [2] (L929, L929 cells (mouse), TNFa), 650 nM.
In the same order, the values of `COc1cccc(C2CCCN2C(=O)C(C)(C)Oc2ccc(Cl)cc2F)c1` (centres unmarked) [QY-4-70] are above 10000 nM, above 10000 nM, above 10000 nM and 1780 nM.
In the same order, the values of `Cc1ccc(C2CCCN2C(=O)C(C)(C)Oc2ccc(Cl)cc2F)cc1` (centres unmarked) [QY-4-75] are 704 nM, 83 nM, 188 nM and 43 nM.
The corresponding values for `CC(C)(Oc1ccc(Cl)cc1F)C(=O)N1CCCC1c1ccccc1F` (centres unmarked) [QY-4-78] are 1100 nM, 205 nM, 724 nM and 156 nM.
Regarding `COc1ccc(C2CCCN2C(=O)C(C)(C)Oc2ccc(Cl)cc2F)cc1` (centres unmarked) [QY-4-87], the concentration for a half-maximal effect (EC50) in assay [1] (setting [3]) is above 10000 nM; in assay [1] (setting [4]) it was 2380 nM; in assay [2] (setting [5]), above 10000 nM; in assay [2] (L929, L929 cells (mouse), TNFa), 2400 nM.
For `CC(C)(Oc1ccc(Cl)cc1F)C(=O)N1CCCC1c1ccc(C#N)cc1` (centres unmarked) [QY-4-88], the concentration giving a half-maximal response (EC50) in assay [1] (setting [3]) was determined as 4000 nM; in assay [1] (setting [4]), 746 nM; in assay [2] (setting [5]) it was 3100 nM; in assay [2] (L929, L929 cells (mouse), TNFa), 1160 nM.
In the same order, the values of `CCc1ccc(C2CCCN2C(=O)C(C)(C)Oc2ccc(Cl)cc2)cc1` (centres unmarked) [QY-4-96] are 6930 nM, 1460 nM, 8130 nM and 2100 nM.
The corresponding values for `CCc1ccc(C2CCCN2C(=O)C(C)(C)Oc2ccc(Cl)cc2F)cc1` (centres unmarked) [QY-4-99] are 9200 nM, 1450 nM, 9120 nM and 2510 nM.
In the same order, the values of `CC(C)c1ccc(C2CCCN2C(=O)C(C)(C)Oc2ccc(Cl)cc2F)cc1` (centres unmarked) [QY-5-1] are above 10000 nM, above 10000 nM, above 10000 nM and above 10000 nM.
On to `CN(C)c1ccc(C2CCCN2C(=O)C(C)(C)Oc2ccc(Cl)cc2F)cc1` (centres unmarked) [QY-5-4], for which the EC50 in assay [1] (setting [3]) is above 10000 nM; in assay [1] (setting [4]) it was above 10000 nM; in assay [2] (setting [5]), above 10000 nM; in assay [2] (L929, L929 cells (mouse), TNFa), above 10000 nM.
For `Cc1ccc([C@@H]2CCCN2C(=O)C(C)(C)Oc2ccc(Cl)cc2F)cc1` [QY-5-22, (S)-2-(4-Chloro-2-fluorophenoxy)-2-methyl-1-(2-(p-tolyl)pyrrolidin-1-yl)propan-1-one], the half-maximal effective concentration (EC50) in assay [1] (setting [3]) worked out at 683 nM; in assay [1] (setting [4]), 98 nM; in assay [2] (L929, L929 cells (mouse), TNFa + SM164), 262 nM; in assay [2] (L929, L929 cells (mouse), TNFa), 62 nM.
As to `CNC(=O)c1ccc(C2CCCN2C(=O)C(C)(C)Oc2ccc(Cl)cc2F)cc1` (centres unmarked) [QY-5-79], the EC50 in assay [1] (setting [3]) is 1060 nM; in assay [1] (setting [4]), 9230 nM; in assay [2] (setting [5]) it was above 10000 nM; in assay [2] (L929, L929 cells (mouse), TNFa), above 10000 nM.
As to `CC(C)(Oc1ccc(Cl)cc1F)C(=O)N1CCCC1c1ccc(C(F)(F)F)cc1` (centres unmarked) [QY-5-83], the EC50 in assay [1] (setting [3]) was 7720 nM; in assay [1] (setting [4]) it was 1290 nM; in assay [2] (setting [5]), above 10000 nM; in assay [2] (L929, L929 cells (mouse), TNFa) it was 8750 nM.
In the same order, the values of `CC(C)(Oc1ccc(Cl)cc1F)C(=O)N1CCCC1c1ccc(C(N)=O)cc1` (centres unmarked) [QY-5-85] are above 10000 nM, 5340 nM, above 10000 nM and above 10000 nM.
In the same order, the values of `Cc1ccc(C2CC=NN2C(=O)C(C)(C)Oc2ccc(Cl)cc2F)cc1` (centres unmarked) [QY-6-47] are 90 nM, 5 nM, 49 nM and 18 nM.
The corresponding values for `CC(C)(Oc1ccc(Cl)cc1F)C(=O)N1CCC[C@H]1c1cc(F)cc(F)c1` [QY-6-60] are 707 nM, 17 nM, 402 nM and 130 nM.
Take `CC(C)(Oc1ccc(Cl)cc1F)C(=O)N1CCC[C@H]1c1ccc(F)c(F)c1` [QY-6-61]: the EC50 in assay [1] (setting [3]) is 379 nM; in assay [1] (setting [4]) it was 12 nM; in assay [2] (setting [5]) it was 218 nM; in assay [2] (L929, L929 cells (mouse), TNFa) it was 75 nM.
In the same order, the values of `CC(C)(Oc1ccc(Cl)cc1F)C(=O)N1CCC[C@H]1c1ccc(F)cc1` [QY-6-62] are 117 nM, 3 nM, 174 nM and 44 nM.
Consider `CNC(=O)c1ccc(OC(C)(C)C(=O)N2CCCC2c2ccc(C)cc2)c(F)c1` (centres unmarked) [QY-6-63], for which the EC50 was above 10000 nM in assay [1] (setting [3]); 4290 nM in assay [1] (setting [4]); 7800 nM in assay [2] (setting [5]); 3150 nM in assay [2] (L929, L929 cells (mouse), TNFa).
The corresponding values for `CC(C)(Oc1ccc(Cl)cc1)C(=O)N1CCC[C@H]1c1ccccc1` [QY-6-83] are 613 nM, 56 nM, 323 nM and 40 nM.
With `CC(C)(Oc1ccc(Cl)cc1F)C(=O)N1CCC[C@H]1c1ccccc1` [QY-6-84], the EC50 came to 439 nM in assay [1] (setting [3]); 27 nM in assay [1] (setting [4]); 216 nM in assay [2] (setting [5]); 25 nM in assay [2] (L929, L929 cells (mouse), TNFa).
`[2H]c1c([2H])c([C@]2([2H])CCCN2C(=O)C(C)(C)Oc2ccc(Cl)cc2F)c([2H])c([2H])c1C([2H])([2H])[2H]` [QY-7-7]: the EC50 was determined as 200 nM in assay [1] (setting [3]); 5 nM in assay [1] (setting [4]); 24 nM in assay [2] (setting [5]); 1 nM in assay [2] (L929, L929 cells (mouse), TNFa).
`COc1cc(OC(C)(C)C(=O)N2N=CCC2c2ccc(C)cc2)ccc1Cl` (centres unmarked) [QY-7-101]: the EC50 stood at 1100 nM in assay [1] (setting [3]); 630 nM in assay [1] (setting [4]); 10 nM in assay [2] (setting [5]); 11 nM in assay [2] (L929, L929 cells (mouse), TNFa).
The corresponding values for `CC(C)(Oc1ccc(Cl)cc1F)C(=O)N1N=CCC1c1ccc(Cl)cc1` (centres unmarked) [QY-8-101] are 692 nM, 15 nM, 15 nM and 5.8 nM.
In the same order, the values of `COc1cc(Cl)ccc1OC(C)(C)C(=O)N1CCCC1c1ccc(C)cc1` (centres unmarked) [QY-9-8] are 1.6 nM, 0.43 nM, 138 nM and 0.44 nM.
For `COc1cc(Cl)ccc1OC(C)(C)C(=O)N1N=CCC1c1ccc(Cl)cc1` (centres unmarked) [QY-9-32], the EC50 in assay [1] (setting [3]) came to 842 nM; in assay [1] (setting [4]) it was 26.6 nM; in assay [2] (L929, L929 cells (mouse), TNFa), 35.7 nM.

The values above are taken from patent publication US12662473B2, “Inhibitors for programmed cell necrosis and preparation method therefor and use thereof” (SHANGHAI INSTITUTE OF ORGANIC CHEMISTRY, CHINESE ACADEMY OF …, priority 2019, dated 2026).
